In general, IC50 refers to the concentration that gives 50% inhibition.

These results are taken from BindingDB's records for doi:10.1111/cbdd.12307 (Peking University, 2014).

Structures are written as SMILES.

The test has as its target T1, Phospholipase A2, membrane associated (Homo sapiens, UniProt P14555).
T1 sequence (P14555 whole entry): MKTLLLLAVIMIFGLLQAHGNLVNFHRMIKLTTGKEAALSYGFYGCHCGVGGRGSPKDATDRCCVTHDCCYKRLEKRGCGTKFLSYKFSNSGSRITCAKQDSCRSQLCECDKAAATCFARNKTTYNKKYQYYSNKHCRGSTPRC
As to the kind of experiment: Inhibitory Activity Assay. The settings on record: pH 8. The procedure: The reaction mixture contained 160 uL of reaction buffer [50 mM Tris-HCl (pH 8.0), 100 mM NaCl, 5 ug/mL bovine serum albumin (BSA), 5 uM CaCl2, and 10 mM anilinonaphthalene sulfonate (ANS)], 20 uL of substrate stock solution (2 mM DMPC), and 2 mM of sodium deoxycholate in water. After 5 min of sonication, 10 uL of inhibitor stock solution (in DMSO) were incubated at 28 uC for 10 min. The reactions were started by adding 10 uL of hnps-PLA2 stock solution (0.1 mg/mL) and monitored by excitation at 377 nm and emission at 470 nm.
In turn, `O=C(N[C@@H](Cc1ccc([NH+]([O-])O)cc1)C(=O)O)OCC1c2ccccc2-c2ccccc21` (some centres not stated) [DCSD 001360 (3)] registered an IC50 of 21.4 µM.

Turning to `O=C(CCc1ccccc1)CC[C@H](NC(=O)OCC1c2ccccc2-c2ccccc21)C(=O)O` [DCSD 001850 (5)], the IC50 came out at 34.5 µM.

In the case of `O=C(N[C@@H](Cc1ccc(O)c([NH+]([O-])O)c1)C(=O)O)OCC1c2ccccc2-c2ccccc21` (some centres not stated) [DCSD 002267 (4)], the IC50 was 41 µM.

`O=C(N[C@H](Cc1ccc2ccccc2c1)C(=O)O)OCC1c2ccccc2-c2ccccc21` [DCSD 002847 (2)] gave an IC50 of 8.6 µM.

`O=C(N[C@H](Cc1ccccc1)C(=O)O)OCC1c2ccccc2-c2ccccc21` [DCSD 002855 (1)] returned a concentration for half-maximal inhibition (IC50) of 47.5 µM.

In turn, `O=C(COc1ccc2ccccc2c1)N/N=C/c1cccc(OC(=O)c2cc([NH+]([O-])O)cc([NH+]([O-])O)c2)c1` (configuration not stated) [SPECS AG-690/40108589 (7)] gave an IC50 of 12.2 µM.

`O=C(COc1ccc(/C=N/NC(=O)c2ccccc2[NH+]([O-])O)cc1)Nc1cccc([NH+]([O-])O)c1` (configuration not stated) [SPECS AG-690/40696769 (6)] had a concentration for half-maximal inhibition (IC50) of 9 µM.
